Measurements reported in US12433874B2 (PRESCIENCE BIOTECHNOLOGY INC., priority 2022, dated 2025).

Assays:
[1] = test system: SKOV3 cells (human ovarian cancer cell); assay type: in vivo; details: docetaxel 4 mg/kg Q3d*4; RAP-E 50 mg/kg Q3d*4
From the text: Akt and mTOR phosphorylation are frequently detected in ovarian cancer, and SKOV3, an ovarian cancer cell line, is resistant to cis-platinum and doxorubicin.

[2] = BCS Class II drug; cited from earlier work
[3] = tablet form; cited from earlier work
[4] = test system: CT26 cells (murine colorectal carcinoma cell); experiment: CT26 mouse colon cancer model; assay type: in vivo; details: 5-FU 25 mg/kg Q3d*4, RAP-E 25 mg/kg Q3d*4
Protocol: CT26 model on Balb/c mice was used as another animal model, classified as three groups: a control group (no drug), a comparative group (administration of 5-FU, dose: 25 mg/kg, Q3d*4) and the inventive group (administration of RAP-E formulation, dose: 25 mg/kg, Q3d*4). 6 week old Balb/c mice (BioLasco, Ilan, Taiwan) were inoculated subcutaneously with 1*10^5 CT26 cells (murine colorectal carcinoma cell). Following tumor inoculation, measuring the tumor size twice a week, and starting treatment when the tumor grows to 80-100 mm^3.

For `CC(=O)O[C@@]12CO[C@@H]1C[C@H](O)[C@@]1(C)C(=O)[C@H](O)C3=C(C)[C@@H](OC(=O)[C@H](O)[C@@H](NC(=O)OC(C)(C)C)c4ccccc4)C[C@@](O)([C@@H](OC(=O)c4ccccc4)[C@H]21)C3(C)C` [docetaxel], the “Mean inhibition rate (tumor volume)” value [1] was 53%.

In the case of `CO[C@H]1C[C@@H]2CC[C@@H](C)[C@@](O)(O2)C(=O)C(=O)N2CCCC[C@H]2C(=O)O[C@H]([C@H](C)C[C@@H]2CC[C@@H](O)[C@H](OC)C2)CC(=O)[C@H](C)/C=C(\C)[C@@H](O)[C@@H](OC)C(=O)[C@H](C)C[C@H](C)/C=C/C=C/C=C/1C` [Rapamycin], the permeability [2] is listed as “high permeability”.

For `CO[C@H]1C[C@@H]2CC[C@@H](C)[C@@](O)(O2)C(=O)C(=O)N2CCCC[C@H]2C(=O)O[C@H]([C@H](C)C[C@@H]2CC[C@@H](OCCO)[C@H](OC)C2)CC(=O)[C@H](C)/C=C(\C)[C@@H](O)[C@@H](OC)C(=O)[C@H](C)C[C@H](C)/C=C/C=C/C=C/1C` [everolimus], the bioavailability [3] is given as ~20%.

With `O=c1[nH]cc(F)c(=O)[nH]1` [5-FU] the “Mean inhibition rate (tumor volume)” value [4] was 11%, the “toxicity (body weight change)” value [4] was “significant weight loss” and the “Day 16 tumor inhibition rate” value ([4]; day 16) was 26%.
